In PubChem BioAssay (NCI) one finds GI50 and TGI data, which are given here for ten molecules.

Molecules are shown by their SMILES. Several values for one entry are separate records, joined by “and”; a condition that tells them apart may be missing. Identical values can stand only once.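 Dose response: 5 concentrations. Exposure: 48 h. Format: 96-well plates. Endpoint: linear interpolation; highest concentration if not reached. GI50 marks 50% less growth. TGI is the concentration that stops growth completely.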

Among the test systems are KM12 colon; RPMI-8226 leukemia; OVCAR-5 ovarian; CAKI-1 renal; LOX IMVI melanoma; SF-295 CNS; RXF 393 renal; HL-60(TB) leukemia; SF-268 CNS; NCI-H23 lung.
Holding throughout (assay): DTP human tumour cell line panel, 48 h

As usually defined, the GI50 is the concentration giving 50% growth inhibition. As usually defined, the TGI is the concentration at which net growth stops. High values mean lower sensitivity of the cells, low ones greater sensitivity of the cells. Turning to `CN(C)c1ccc2nc3ccc(=[N+](C)C)cc-3sc2c1`, the GI50 in the experiment with KM12 colon is 0.724 µM and 0.696 µM; with RPMI-8226 leukemia, 0.214 µM and 1.23 µM; with OVCAR-5 ovarian, 0.599 µM and 0.642 µM; with CAKI-1 renal, 2.17 µM and 1.96 µM; in the experiment with LOX IMVI melanoma it was 0.404 µM and 0.65 µM; in the experiment on SF-295 CNS, 0.329 µM and 0.934 µM. Also, the GI50 was 2.73 µM and 10.1 µM with RXF 393 renal; 0.0938 µM and 0.187 µM with HL-60(TB) leukemia; 0.446 µM and 1.08 µM in the experiment with SF-268 CNS; 0.322 µM and 0.597 µM with NCI-H23 lung. Moreover, the total growth inhibition concentration (TGI) was 19.6 µM and 15.7 µM in the experiment with KM12 colon; 26 µM and 39.6 µM with RPMI-8226 leukemia; 11.3 µM and 17.3 µM in the experiment with OVCAR-5 ovarian; 19.4 µM and 8.5 µM in the experiment with CAKI-1 renal; 7.61 µM and 10.4 µM with LOX IMVI melanoma; 10.3 µM and 10.2 µM in the experiment with SF-295 CNS. Moreover, the TGI was 18 µM and 27.9 µM with RXF 393 renal; 2.28 µM and 1.35 µM in the experiment on HL-60(TB) leukemia; 15.4 µM and 15.1 µM with SF-268 CNS; 4.99 µM and 12.7 µM in the experiment with NCI-H23 lung.
Take `CC(C)(O)CC(=O)NCCn1ccc2ncnc(Nc3ccc(Oc4cccc(C(F)(F)F)c4)c(Cl)c3)c21`: the GI50 was 3.67 µM with KM12 colon; 4.68 µM in the experiment with RPMI-8226 leukemia; 2.55 µM with OVCAR-5 ovarian; 1.8 µM in the experiment with CAKI-1 renal; 2.34 µM in the experiment with LOX IMVI melanoma; 3.79 µM in the experiment with SF-295 CNS. The GI50 in the experiment on RXF 393 renal is 1.87 µM; in the experiment on HL-60(TB) leukemia it was 2.88 µM; in the experiment with SF-268 CNS, 3.5 µM; with NCI-H23 lung, 3.76 µM. Besides, the TGI with KM12 colon, in the experiment with RPMI-8226 leukemia, in the experiment on OVCAR-5 ovarian, in the experiment with CAKI-1 renal, in the experiment with LOX IMVI melanoma and in the experiment on SF-295 CNS was > 10 µM throughout. Moreover, the TGI in the experiment with RXF 393 renal is 4.31 µM; with HL-60(TB) leukemia, > 10 µM; in the experiment with SF-268 CNS, > 10 µM; with NCI-H23 lung, > 10 µM.
As for `O=C1c2c(O)cccc2C(C2OC(CO)C(O)C(O)C2O)c2cc(CO)cc(O)c21` (stereo unspecified), the TGI in the experiment with KM12 colon, with RPMI-8226 leukemia, with OVCAR-5 ovarian, in the experiment with CAKI-1 renal, in the experiment on LOX IMVI melanoma and in the experiment with SF-295 CNS was > 100 µM in each case. Further, the TGI with RXF 393 renal, in the experiment on HL-60(TB) leukemia, in the experiment with SF-268 CNS and in the experiment on NCI-H23 lung was > 100 µM each time.
For `COc1ccc(OC)c(NC(=O)CCC/C(CC(=O)c2ccc(O)c(OC)c2)=N\Nc2ccc([N+](=O)[O-])cc2)c1`, the TGI in the experiment on KM12 colon, in the experiment on RPMI-8226 leukemia, with OVCAR-5 ovarian, in the experiment on CAKI-1 renal, in the experiment with LOX IMVI melanoma and in the experiment with SF-295 CNS was > 100 µM each time. Further, the TGI was 78.6 µM with RXF 393 renal, > 100 µM in the experiment with HL-60(TB) leukemia, > 100 µM with SF-268 CNS and > 100 µM in the experiment with NCI-H23 lung.
Consider `CN(C(=O)c1ccco1)C(=S)N1CCN(c2ccccc2)CC1`, for which the TGI in the experiment with KM12 colon, with RPMI-8226 leukemia, with OVCAR-5 ovarian, with CAKI-1 renal, with LOX IMVI melanoma and in the experiment with SF-295 CNS was > 100 µM throughout. In addition, the TGI in the experiment on RXF 393 renal, in the experiment with HL-60(TB) leukemia, in the experiment with SF-268 CNS and in the experiment with NCI-H23 lung was > 100 µM throughout.
For `COc1ccc(OC)c(-c2c(C#N)c(N)nc(N3CCOCC3)c2C#N)c1`, the GI50 is > 100 µM in the experiment on KM12 colon; > 100 µM in the experiment with RPMI-8226 leukemia; > 100 µM with OVCAR-5 ovarian; 43.4 µM with CAKI-1 renal; > 100 µM in the experiment with LOX IMVI melanoma; > 100 µM with SF-295 CNS. The GI50 in the experiment with RXF 393 renal was 61.4 µM; in the experiment with HL-60(TB) leukemia it was > 100 µM; in the experiment with SF-268 CNS, > 100 µM. Moreover, the TGI in the experiment with KM12 colon is > 100 µM; with RPMI-8226 leukemia it was > 100 µM; with OVCAR-5 ovarian, > 100 µM; in the experiment on CAKI-1 renal it was 97 µM; in the experiment with LOX IMVI melanoma, > 100 µM; with SF-295 CNS it was > 100 µM. Moreover, the TGI with RXF 393 renal, in the experiment on HL-60(TB) leukemia and in the experiment with SF-268 CNS was > 100 µM throughout.
For `Cc1cccc(C(C)C)c1NC(=O)CC1C(=O)Nc2ccccc2S1(=O)=O` (stereo unspecified), the TGI in the experiment with KM12 colon is 73.9 µM; in the experiment with RPMI-8226 leukemia, 23 µM; in the experiment on OVCAR-5 ovarian it was > 73.1 µM; in the experiment on CAKI-1 renal, > 50 µM; with LOX IMVI melanoma it was > 51.8 µM; in the experiment on SF-295 CNS it was 67.1 µM. Besides, the total growth inhibition concentration (TGI) came out at 25.8 µM in the experiment with RXF 393 renal, 28.4 µM in the experiment with HL-60(TB) leukemia, 29.5 µM in the experiment with SF-268 CNS and 31.3 µM in the experiment on NCI-H23 lung.
In the case of `O=C1CC(S(=O)(=O)O)C=C1Nc1cccc(Cl)c1` (stereo unspecified), the concentration for total growth inhibition (TGI) in the experiment on KM12 colon, with OVCAR-5 ovarian, in the experiment on CAKI-1 renal, in the experiment on LOX IMVI melanoma, in the experiment with SF-295 CNS and in the experiment with RXF 393 renal was > 100 µM throughout. The TGI in the experiment on HL-60(TB) leukemia, in the experiment with SF-268 CNS and with NCI-H23 lung was > 100 µM throughout.
For `CN(C)c1ccc2c(c1)OC(N)=C(C#N)C2c1ccc2c(c1)CCO2` (stereo unspecified), the GI50 in the experiment with KM12 colon was < 0.0309 µM; with RPMI-8226 leukemia, 0.48 µM; in the experiment with OVCAR-5 ovarian, 1.13 µM; in the experiment on CAKI-1 renal, 0.147 µM; in the experiment with LOX IMVI melanoma it was 0.053 µM; in the experiment on SF-295 CNS, < 0.0208 µM. Besides, the GI50 is 0.255 µM with RXF 393 renal, 0.0939 µM in the experiment with HL-60(TB) leukemia, 0.524 µM in the experiment on SF-268 CNS and 0.362 µM with NCI-H23 lung. The TGI was > 42 µM with KM12 colon; 28.3 µM in the experiment with RPMI-8226 leukemia; > 100 µM in the experiment with OVCAR-5 ovarian; > 100 µM with CAKI-1 renal; 17.9 µM in the experiment with LOX IMVI melanoma; 1.95 µM with SF-295 CNS. The results for the TGI in the experiment with HL-60(TB) leukemia, in the experiment on SF-268 CNS and with NCI-H23 lung were 0.491 µM, 97.4 µM and > 100 µM, respectively.
`CCCCN(CCCC)c1ccc(C(=N)c2ccc(N(CCCC)CCCC)cc2)cc1`: the GI50 was 0.334 µM in the experiment on KM12 colon; 0.396 µM in the experiment with RPMI-8226 leukemia; 0.88 µM with OVCAR-5 ovarian; 0.535 µM in the experiment with CAKI-1 renal; 0.313 µM in the experiment on LOX IMVI melanoma; 0.499 µM with SF-295 CNS. Also, the GI50 in the experiment with RXF 393 renal is 0.545 µM; in the experiment on HL-60(TB) leukemia, 0.479 µM; with SF-268 CNS, 0.679 µM; in the experiment on NCI-H23 lung, 0.292 µM. The TGI in the experiment with KM12 colon is 1.25 µM; in the experiment with RPMI-8226 leukemia, 1.88 µM; in the experiment with OVCAR-5 ovarian, 2.31 µM; in the experiment with CAKI-1 renal, 1.82 µM; with LOX IMVI melanoma it was 1.19 µM; in the experiment with SF-295 CNS it was 1.79 µM. Further, the TGI with RXF 393 renal was found to be 1.62 µM; with HL-60(TB) leukemia, 1.95 µM; in the experiment with SF-268 CNS it was 1.93 µM; with NCI-H23 lung, 1.06 µM.
